Measured values published in patent publication EP0021229A1, “Arylazo compounds, their preparation and their use” (priority 1979, dated 1981).

Target: T1, prostaglandin-15-dehydrogenase (Homo sapiens, UniProt P15428)
T1 construct: from tissue
T1 sequence (P15428 1-266): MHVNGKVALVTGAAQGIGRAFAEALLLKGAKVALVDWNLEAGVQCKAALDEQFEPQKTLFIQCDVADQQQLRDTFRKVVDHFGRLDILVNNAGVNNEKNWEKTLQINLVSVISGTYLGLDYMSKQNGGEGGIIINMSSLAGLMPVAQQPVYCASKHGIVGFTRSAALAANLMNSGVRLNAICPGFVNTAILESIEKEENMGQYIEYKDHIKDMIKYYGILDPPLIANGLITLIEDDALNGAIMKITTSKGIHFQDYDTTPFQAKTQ
Assay: Inhibition of prostaglandin F2a inactivation in cell-free organ preparations (Hoult and Moore)
Type: biochemical
Details: in vitro, radioactive prostaglandin F2a incubated with cellfree preparations of different organs; compared to sulfasalazine (compound A)
Procedure: Radioactive prostaglandin F2a was incubated with cellfree preparations of different organs (containing prostaglandin-15-dehydrogenase) according to Hoult and Moore, British Journal of Pharmacology, Vol. 61 (1977), p. 615. After a suitable time the prostaglandins were extracted and separated by chromatography. Then the amount of remaining prostaglandin F 2a was compared with the amounts of metabolites. The inhibiting effect was obtained by the addition of the compounds according to the invention during the incubation and comparison with control experiments without such addition. The results may be represented either as a concentration giving 50% inhibition of the prostaglandin inactivation, or as an inhibition in per cen at a certain concentration of the studied compound. In the following table the results for some compounds according to the invention are shown compared to the known drug sulfasalazine.

SMILES | activity (inhibition of the prostaglandin inactivation) relative to the known compound A | activity (inhibition of the prostaglandin inactivation) compared with compound A, in words
O=C(O)Cc1cc(N=Nc2ccc(S(=O)(=O)Nc3ccccn3)cc2)ccc1O [compound B] | 50 times | 
O=C(O)Cc1cc(N=Nc2ccccc2)ccc1O [C, 2-hydroxy-5-phenylazo-benzeneacetic acid] |  | significantly more active than compound A
